This is an account of results in patent US8460669B2, “Compositions and methods for identifying response targets and treating flavivirus infection responses” (Academia Sinica, priority 2005, dated 2013).

Entries after “also recorded” stand apart in the source; their conditions may differ.

For one assay, the target named is T1, Dectin-1.Fc (Homo sapiens, UniProt Q9BXN2).
T1 construct: The extracellular domains of lectin receptors, TREMs and TLTs were cloned by the reverse-transcriptase polymerase chain reaction (RT-PCR); made in house; host or cells: 293-F (FreeStyle 293) cells
T1 sequence (Q9BXN2 66-247 limits assumed): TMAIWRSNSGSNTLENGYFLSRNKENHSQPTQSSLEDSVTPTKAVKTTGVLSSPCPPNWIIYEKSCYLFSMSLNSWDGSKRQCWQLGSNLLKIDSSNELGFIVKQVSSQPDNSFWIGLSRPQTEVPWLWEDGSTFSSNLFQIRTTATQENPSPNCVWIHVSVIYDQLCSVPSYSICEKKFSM
As to the kind of experiment: Immunosorbent dot binding assay with Dectin-1.Fc. The note with it: competitor 0.1 μg-1000 μg, or EDTA 10 mM in TBST.

The target in the next assay is T2, KCR.Fc (Mus musculus, UniProt P70194).
T2 construct: the extracellular domains of DVLR1/CLEC5A (MDL-1), Dectin-1, KCR, and DC-SIGN (as a positive control) were fused to the Fc portion of human IgG1; made in house; host or cells: 293-F (FreeStyle 293) cells
T2 sequence (P70194 70-548 limits assumed): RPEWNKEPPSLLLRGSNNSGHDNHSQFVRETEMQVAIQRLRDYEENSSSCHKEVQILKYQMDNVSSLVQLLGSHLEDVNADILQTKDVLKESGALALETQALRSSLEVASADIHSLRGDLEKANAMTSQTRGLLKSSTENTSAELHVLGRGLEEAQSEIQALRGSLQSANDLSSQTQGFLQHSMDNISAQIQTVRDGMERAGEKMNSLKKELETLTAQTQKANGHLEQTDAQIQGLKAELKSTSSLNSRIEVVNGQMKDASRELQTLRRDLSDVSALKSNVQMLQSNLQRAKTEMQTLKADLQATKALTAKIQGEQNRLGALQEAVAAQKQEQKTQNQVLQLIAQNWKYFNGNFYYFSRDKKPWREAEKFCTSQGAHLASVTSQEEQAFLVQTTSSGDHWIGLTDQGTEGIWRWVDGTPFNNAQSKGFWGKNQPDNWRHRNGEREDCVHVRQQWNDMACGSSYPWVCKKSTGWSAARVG
As to the kind of experiment: Immunosorbent dot binding assay with KCR.Fc. The note with it: EDTA 10 mM in TBST.

For the next assay, the target named is T3, DC-SIGNR.Fc (Homo sapiens, UniProt Q9H2X3).
T3 construct: The extracellular domains of lectin receptors, TREMs and TLTs were cloned by the reverse-transcriptase polymerase chain reaction (RT-PCR); made in house; host or cells: 293-F (FreeStyle 293) cells
T3 sequence (Q9H2X3 71-399): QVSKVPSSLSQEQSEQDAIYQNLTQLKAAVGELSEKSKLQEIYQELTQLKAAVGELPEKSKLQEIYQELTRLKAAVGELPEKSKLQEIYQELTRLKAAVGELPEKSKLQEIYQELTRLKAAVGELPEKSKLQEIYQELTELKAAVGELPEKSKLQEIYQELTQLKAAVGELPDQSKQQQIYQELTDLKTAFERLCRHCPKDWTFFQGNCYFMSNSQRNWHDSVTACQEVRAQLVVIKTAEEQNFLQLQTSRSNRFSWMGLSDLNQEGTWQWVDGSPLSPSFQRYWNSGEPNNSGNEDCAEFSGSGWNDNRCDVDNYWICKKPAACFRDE
As to the kind of experiment: Immunosorbent dot binding assay with DC-SIGNR.Fc. The following applies: EDTA 10 mM in TBST.

For the next assay, the target named is T4, TLT-2.Fc (Homo sapiens, UniProt Q5T2D2).
T4 construct: The extracellular domains of lectin receptors, TREMs and TLTs were cloned by the reverse-transcriptase polymerase chain reaction (RT-PCR); made in house; host or cells: 293-F (FreeStyle 293) cells
T4 sequence (Q5T2D2 19-268 limits assumed): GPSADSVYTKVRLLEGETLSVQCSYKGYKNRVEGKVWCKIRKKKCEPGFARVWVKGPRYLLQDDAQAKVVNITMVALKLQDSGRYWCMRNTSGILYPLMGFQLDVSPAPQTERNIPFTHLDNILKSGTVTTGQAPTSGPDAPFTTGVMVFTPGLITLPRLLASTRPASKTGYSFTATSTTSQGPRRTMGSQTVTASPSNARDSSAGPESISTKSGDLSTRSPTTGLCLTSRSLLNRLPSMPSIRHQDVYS
As to the kind of experiment: Immunosorbent dot binding assay with TLT-2.Fc. The following applies: EDTA 10 mM in TBST.

Assay [1] in a line: Enzyme linked immunoassay of receptor.Fc fusions on immobilized GLPS-F3. Format: binding, Ganoderma lucidum. The following applies: GLPS-F3 100 ng/well; receptor.Fc 1 μg/ml. The protocol:
The interactions of polysaccharides with receptor.Fc fusion proteins was further investigated by performing an enzyme-linked immunoassay, which was based on immobilizing GLPS-F3 through both hydrophilic and hydrophobic forces onto microtiter plates (polysytrene). In this format, the number of different receptor.Fc fusions for profiling was increased in comparison to Example 7. To optimize the quantity of GLPS-F3 for immobilization, various amounts (3-1000 ng/well, diluted in 100 mM Tris buffer, pH9.5) of biotinylated-GLPS-F3 (Biotin-GLPS-F3) were coated onto MaxiSorp StarWell microtiter plates (50 μL/well; Nunc). The plates were incubated overnight at 4° C., and then the wells were washed twice with TBST, followed by blocking with 200 μL blocking buffer (2% BSA/TBST) for 1 hour at room temperature. Peroxidase-conjugated avidin (1:5000 dilution, Vector Laboratories) and TMB (tetramethylbenzidine) substrate was then used for detection of immobilized biotinylated GLPS-F3.
The interaction between GLPS-F3 and receptor.Fc was then tested. […] Wells were incubated with 100 μL TMB substrate for 15 min after TBST washing and read at 450 nm in a Fusion plate reader (Perkin Elmer). […]

Assay [2] concerns Dengue virus. The assay can be described thus: ELISA of receptor.Fc interaction with Dengue virus. Format: binding. The note with it: for interaction of receptor.Fc with Dengue virus (ELISA): receptor.Fc 1 μg, DV 5×10^6. The protocol:
One μg of each receptor.Fc fusion protein was coated onto microtiter plates overnight at 4° C. DV (5×10^6 particles) of strain 16681 (a DEN2 strain) in binding buffer (1% BSA, 2 mM CaCl2, 2 mM MgCl2, 50 mM Tris-HCl pH 7.5, 150 mM NaCl) was then added to the plates and the plates were incubated for 2 hours. After washing non-bound virus, a biotinylated anti-DEN2 envelope protein antibody (Wu et al., J Virol, 2002. 76(8): p. 3596-604) was applied to bind to the virus for 1 hour. Diluted horseradish peroxidase-conjugated streptavidin was then added to the plates, followed by a 1 hour incubation. TMB substrate was then added and the plates were read using an ELISA reader at OD450 nm.
The microtiter plate assay was repeated in the presence of EDTA (10 mM) to chelate Ca^++ cations.
The microtiter plate assay was also repeated for DVLR1/CLEC5A.Fc fusion protein with DV particles (5×10^6) that had been 1) preincubated with 500 U of the glycosidase PNGaseF (New England Biolabs, Inc.) overnight at 37° C.; or 2) treated with dithiothreitol (DTTI) (0.1M); or 3) incubated at 95° C. for 5 minutes; or 4) UV irradiated for 5 minutes. The results are shown in FIG. 8D (asterisks indicate where the binding affinity of DVLR1/CLEC5A.Fc fusion protein is altered by modification of the virus relative to non-treated virus; ** p<0.01, *** p<0.001, Student's t test). […]
For orientation: ELISA stands for enzyme-linked immunosorbent assay.

Assay [3] has as its system Dengue virus. As to the kind of experiment: Immunoprecipitation of Dengue virus with receptor.Fc. The following applies: receptor.Fc 5 μg; DV 5×10^6; listed as DC-SIGN.Fc. The class given is binding. How it is done: The results are depicted in FIG. 8A (** indicates p<0.01, *** indicates p<0.001 (Student's t test)). […] Specifically, 5×10^6 Dengue virus particles were incubated with 5 μg of each protein, and then Protein A beads were added. The resulting immunocomplexes were washed, separated by SDS-PAGE, and transferred onto nitrocellulose membrane. The membrane was then probed with biotinylated anti-DEN2 envelope protein antibody and developed with horseradish peroxidase-conjugated streptavidin.
In FIG. 16b, complexes of DV (5×10^6 PFU) with receptor.Fc (5 μg) were immunoprecipitated and detected on westerns with mAb to DV envelope (E) protein. […] FIGS. 16d and 16e show sugar competition assays wherein both DC-SIGN (CLEC4L) and DVLR1/CLEC5A increase DV binding to human 293T cells (FIG. 16d), while addition of sugars inhibits biotinylated DV binding to DC-SIGN- (left panel) or DLVR1/CLEC5A- (right panel) transfected 293T cells in a dose-dependent manner as determined by flow cytometry (FIG. 16e). According to FIG. 16e, MFI represents mean fluorescence intensity. Units (U) for monosaccharide (mannose and fucose) and polysaccharide (mannan) are mM and mg/ml, respectively. […] Data are expressed as the mean±s.d. of three independent experiments. Two-tailed, Student's t-tests were performed. […]

`O=C(O)CN(CCN(CC(=O)O)CC(=O)O)CC(=O)O` [EDTA, Ethylene Diamine Tetra Acetic Acid]: the “inhibition of the interaction between Dectin-1.Fc and F3” value at Dectin-1.Fc is reported as “not”. Further, the “inhibition of the interaction of F3 with KCR.Fc” value at KCR.Fc was “completely oabolished”. Besides, on DC-SIGNR.Fc, the “inhibition of the interaction of F3 with DC-SIGNR.Fc” value is recorded as “completely oabolished”. Besides, the “inhibition of the interaction of F3 with TLT2.Fc” value at TLT-2.Fc is “not”.
As for “Fc.DC-SIGNR: DC-SIGNR (CLEC4M) receptor.Fc fusion protein”, the “binding ability to GLPS-F3” value in assay [1] is reported as “minimal binding ability”. The “interaction of receptor.Fc with Dengue virus (ELISA)” value with Dengue virus [2] was “able to capture DV2”.

B1: Fc.DC-SIGN: DC-SIGN (CLEC4L) extracellular domain fused to human IgG1 Fc (protein)
chain: QVSKVPSSISQEQSRQDAIYQNLTQLKAAVGELSEKSKLQEIYQELTQLKAAVGELPEKSKLQEIYQELTRLKAAVGELPEKSKLQEIYQELTWLKAAVGELPEKSKMQEIYQELTRLKAAVGELPEKSKQQEIYQELTRLKAAVGELPEKSKQQEIYQELTRLKAAVGELPEKSKQQEIYQELTQLKAAVERLCHPCPWEWTFFQGNCYFMSNSQRNWHDSITACKEVGAQLVVIKSAEEQNFLQLQSSRSNRFTWMGLSDLNQEGTWQWVDGSPLLPSFKQYWNRGEPNNVGEEDCAEFSGNGWNDDKCNLAKFWICKKSAASCSRDEEQFLSPAPATPNPPPA
modifications: left off: a dimerising Fc or GST
Regarding B1, the “binding to DV pretreated with heat or dithiothreitol” value with Dengue virus [2] (95° C. 5 min or DTT 0.1 M) is reported as “not”. In the assay with Dengue virus [2] (EDTA 10 mM), the “Ca^++ dependence of binding to Dengue virus” value is “Ca^++ dependent; also recorded: Ca^++-dependent”. The “interaction of receptor.Fc with Dengue virus (ELISA)” value was “binds” in the assay with Dengue virus [2] and “able to capture DV2” with Dengue virus [2] (listed as DC-SIGN.Fc). For the same molecule, the “immunoprecipitation of Dengue virus (E protein detected)” value in the assay on Dengue virus [3] is given as “able to immunoprecipitate DV; also recorded: detected”.
